Read-outs that look alike come from different tables or passages of the source.
Legend:
E. coli B90 = test: Test A antibacterial assay, standard microtitration (MIC); type: cell-based; settings: Gram negative; E. coli B90
Procedure: (§1) Test A-Antibacterial Assay
(§2) The compounds of the present invention were tested against an assortment of Gram-negative and Gram-positive organisms using standard microtitration techniques (Cohen, et al., Antimicrob. Agents Chemother., 1985;28:766; Heifetz, et al., Antimicrob. Agents Chemother:, 1974;6:124). […]

E. coli MC 4100 = test: as above; type: cell-based; settings: Gram negative; E. coli MC 4100
Procedure: as §1, §2

E. coli Tol C = test: as above; type: cell-based; settings: Gram negative; E. coli Tol C
Procedure: as §1, §2

E. faecalis RB1 = test: as above; type: cell-based; settings: Gram positive; E. faecalis RB1
Procedure: as §1, §2

S. aureus 29213 = test: as above; type: cell-based; settings: Gram positive; S. aureus 29213
Procedure: as §1, §2

S. pyogenes C203 = test: as above; type: cell-based; settings: Gram positive; S. pyogenes C203
Procedure: as §1, §2

E. coli gyrase = E. coli gyrase (Escherichia coli, UniProt P0AES4+P0AES6); test: biochemical
E. coli gyrase, sequence (P0AES4 whole entry, the tested form may be a part, one chain of several): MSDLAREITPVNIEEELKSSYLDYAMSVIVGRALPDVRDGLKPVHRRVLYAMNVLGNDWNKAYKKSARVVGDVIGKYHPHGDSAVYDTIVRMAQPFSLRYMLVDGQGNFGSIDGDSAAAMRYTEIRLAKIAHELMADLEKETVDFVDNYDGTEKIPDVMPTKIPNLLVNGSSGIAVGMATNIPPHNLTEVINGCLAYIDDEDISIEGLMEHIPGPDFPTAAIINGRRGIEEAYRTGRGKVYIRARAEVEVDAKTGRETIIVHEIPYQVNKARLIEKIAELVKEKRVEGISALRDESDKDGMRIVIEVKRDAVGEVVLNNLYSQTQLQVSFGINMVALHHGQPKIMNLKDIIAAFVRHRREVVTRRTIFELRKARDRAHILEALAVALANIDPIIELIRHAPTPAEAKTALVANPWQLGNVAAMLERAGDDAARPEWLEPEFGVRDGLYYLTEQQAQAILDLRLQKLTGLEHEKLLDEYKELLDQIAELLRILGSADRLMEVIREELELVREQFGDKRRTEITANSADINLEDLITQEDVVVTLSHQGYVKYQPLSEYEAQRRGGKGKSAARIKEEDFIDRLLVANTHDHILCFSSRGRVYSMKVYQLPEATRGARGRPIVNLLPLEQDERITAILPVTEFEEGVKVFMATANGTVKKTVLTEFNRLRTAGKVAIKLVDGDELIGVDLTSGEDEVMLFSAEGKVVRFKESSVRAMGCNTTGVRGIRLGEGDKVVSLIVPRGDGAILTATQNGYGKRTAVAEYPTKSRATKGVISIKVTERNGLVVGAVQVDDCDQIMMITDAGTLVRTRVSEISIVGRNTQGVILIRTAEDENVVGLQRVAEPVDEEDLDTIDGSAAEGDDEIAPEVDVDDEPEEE

[1] = Test E pharmacokinetic behavior in rats; type: in vivo; settings: male, Wistar, plasma; Rat; 1 mg/kg IV infusion in D5W over 5 minutes
Procedure: (§3) Test E-Pharmacokinetic Behavior or Quinazolinediones vs. 3-Aminoquinazolinediones
(§4) The compounds of the present invention were tested for pharmacokinetic behavior against the structurally related 3-aminoquinazolinediones in rats, dogs and monkeys. The representative result of the evaluation for compound 4b is shown in Table 6 compared to a structurally similar 3-aminoquinazolinedione.
In this study, compounds were administered to male Wistar rats and were dosed at 1 mg/kgIV infusion in D5W over 5 minutes. Blood samples were drawn at 0, 0.083, 0.167, 0.25, 0.5, 1, 2, 4, 6, 8, 12, and 24 hours post dose.
(§5) Plasma from all samples were harvested following centrifugaltion and stored frozen until plasma concentrations were determined using liquid chromatography/mass spectroscopy methods. The concentration/time profile for each compound in each animal species was analyzed using non-compartmental pharmacokinetic analysis approach. In the table, clearance is defined as the volume of fluid cleared of drug from the body per unit of time. Clearance is a quantitative assessment of drug elimination. Drug elimination is the irreversible removal of drug from the body by all routes of elimination.

[2] = Test E pharmacokinetic behavior in dogs; type: in vivo; settings: male, beagle, plasma; Dog; 5 mg/kg IV infusion over 15 minutes
Procedure: as §3, §4
Male Beagle Dogs were dosed with compound dissolved in D5W at 5 mg/kg IV Infusion over 15 minutes. Blood samples will be collected at 0, 0.167, 0.25, 0.33, 0.5, 1, 2, 4, 6, 8, 12 and 24 hours post dose.
as §5

[3] = Test E pharmacokinetic behavior in monkeys; type: in vivo, Male Cynomologous Monkeys; settings: male, plasma; Monkey; 5 mg/kg IV infusion over 15 minutes
Procedure: as §3, §4
Male Cynomologous Monkeys were dosed with compound dissolved in D5W at 5 mg/kg IV Infusion over 15 minutes. Blood samples were collected at 0, 0.167, 0.25, 0.33, 0.5, 1, 2, 4, 6, 8, 12 and 24 hours post dose.
as §5

[4] = supercoiling of relaxed pBR322, 30 minutes at 37° C.

Compound | Minimum Inhibitory Concentrations E. coli B90 (E. coli B90) [µg/mL] | Minimum Inhibitory Concentrations E. coli MC 4100 (E. coli MC 4100) [µg/mL] | Minimum Inhibitory Concentrations E. coli Tol C (E. coli Tol C) [µg/mL] | Minimum Inhibitory Concentrations E. faecalis RB1 (E. faecalis RB1) [µg/mL] | Minimum Inhibitory Concentrations S. aureus 29213 (S. aureus 29213) [µg/mL] | Minimum Inhibitory Concentrations S. pyogenes C203 (S. pyogenes C203) [µg/mL] | IC50 (E. coli gyrase; [4]) [µM] | clearance [1] [mL/min/kg] | half-life [1] [h] | clearance [2] [mL/min/kg] | half-life [2] [h] | clearance [3] [mL/min/kg] | half-life [3] [h] | IC50 (E. coli gyrase) [µM]
1-Cyclopropyl-7-(5,5-difluoro-4-hydroxy-4,5,6,7-tetrahydrobenzo[b]thiophen-2-yl)-6-fluoro-8-methyl-1H-quinazolinedione [Example 23b] | 0.13 | 16.0 | <0.06 | 1.0 | 0.5 | 2.0 | 1 | – | – | – | – | – | – | –
Cc1c(N2CCC(C(N)CF)C2)c(F)cc2c(=O)[nH]c(=O)n(C3CC3)c12.Cl (stereo not drawn) [Example 19f, 7-[3-(1-Amino-2-fluoroethyl)pyrrolidin-1-yl]-1-cyclopropyl-6-fluoro-8-methyl-1H-quinazolinedione Hydrochloride] | 0.25 | 4.0 | 0.13 | 0.06 | 0.13 | 0.06 | 1.8 | – | – | – | – | – | – | –
Cc1c(N2CC[C@@H]([C@H](C)N)C2)c(F)cc2c(=O)n(N)c(=O)n(C3CC3)c12 [reference compound] | – | – | – | – | – | – | – | 62 | 2 | 21 | 2.4 | 24 | 2.2 | –
Cc1c(N2CC[C@@H]([C@H](C)N)C2)c(F)cc2c(=O)[nH]c(=O)n(C3CC3)c12 [drawing 387] | – | – | – | – | – | – | – | 47 | 1.9 | 8.7 | 6.3 | 17 | 4.1 | –
7-[(R)-3-((S)-1-Aminoethyl)pyrrolidin-1-yl]-1-cyclopropyl-6-fluoro-5,8-dimethyl-1H-quinazolinedione Hydrochloride [Example 41c] | 0.25 | 2.0 | 0.06 | 0.03 | 0.03 | 0.008 | – | – | – | – | – | – | – | 0.6
